# Results taken from patent US20130245275A1, “PHENYL DIAMIDES AND A PHARMACEUTICAL PREPARATION COMPRISING PHENYL DIAMIDES” (Rheinische Friedrich-Wilhelms Universitaet Bonn, priority 2010, published 2013).
# “Also recorded” adds a separate entry of the source.
# Experiments:
# [1] = system: U87 EGFRvIII; assay: glioblastoma proliferation assay (MTT), U87 EGFRvIII; selectivity of the inhibition; type: cell-based, human; settings: for IC50: Homo sapiens, U87 EGFRvIII, 72 hours, MTT, at least 3 times, read-out: IC50 values of the inhibition of the proliferation in the cell line U87 EGFRvIII; for selectivity of the inhibition of the EGFRvIII dependent cell proliferation: U87 EGFRvIII compared with parental U87 wt
# Method: (§1) U87 wt and U87 EGFRvIII cells were a gift from Prof. Dr. Andreas H. Jacobs, European Institute for Molecular Imaging, Münster, Germany. The cells were maintained in DMEM (PAA) supplemented with 1% FCS (Lonza), 1% Penicillin/Streptomycin (PAA) and 110 μg/ml Sodiumpyruvat (Sigma-Aldrich) and were grown at 37° C., 5% CO2.
# (§2) 300 cells per 96 well were seeded into a clear, flat bottom 96 well plate (TPP). After 24 hours the cells were washed twice in 1×DPBS (PAA) and treated with concentrations ranging from 2.5 nM to 2 μM of the phenyl diamides according to formulas (5) to (18) or 5 μM of the control compound (XH1009) in DMEM (PAA) supplemented with 1% FCS (Lonza), 1% Penicillin/Streptomycin (PAA) and 110 μg/ml Sodiumpyruvat (Sigma-Aldrich). Controls were treated with Dimethyl sulfoxide (DMSO) as solvent in an end concentration of 0.4% (v/v). Medium was changed daily.
# (§3) After 72 hours cell proliferation was quantified by using a commercially available 3-(4,5-dimethylthiazol-2-yl)-2,5diphenyltetrazolium bromide (MTT) assay (Cell Titer 96® Non-Radioactive Cell Proliferation Assay, Promega) as described in the manufacture's protocol. Briefly, 15 μl of Dye solution was added directly into the 100 μl media of the cells. After 4 hours incubation at 37° C., 5% CO2, 100 μl solubilization solution was added to solubilize the formazan product and the absorbance at 570 nm was measured in a Varioscan microplate reader (Thermo Scientific). All assays were performed at least in triplicates. For calculation of the relative proliferation rate/cell number the mean absorbance in the solvent DMSO only treated cells was set as 1. Results are given as the mean+/−standard error.
# (§4) Further, the IC50 values of the inhibition of the proliferation was determined. The IC50 value was determined by plotting the relative cell number against the added concentrations of the amide. The IC50 value corresponds to the concentration of the phenyl diamides at which the proliferation is reduced to half. The lower the IC50 value, the more strongly the phenyl diamide inhibits proliferation.
# [2] = molecular target: T1, sec7-domain of cytohesin-2 (ARNO) (Homo sapiens, UniProt Q99418); assay: guanine nucleotide exchange assay (GDP/GTP exchange on [Δ17]ARF1, tryptophan fluorescence); type: biochemical; settings: isolated Sec-7 domain, each experiment at least 8 times, read-out: IC50 values measured for the isolated Sec-7 domain of cytohesin-2
# T1 construct: ARNO-Sec7 (amino acids 50-255 of ARNO) were expressed in Escherichia coli; made in house; host or cells: Escherichia coli
# T1 sequence (Q99418 50-255): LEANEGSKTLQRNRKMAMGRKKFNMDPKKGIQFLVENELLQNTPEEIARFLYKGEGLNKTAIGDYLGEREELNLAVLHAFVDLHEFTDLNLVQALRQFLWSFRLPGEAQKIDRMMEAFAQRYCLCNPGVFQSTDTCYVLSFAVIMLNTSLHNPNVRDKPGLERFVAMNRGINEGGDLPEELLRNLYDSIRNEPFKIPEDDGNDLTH
# Method: The inhibition of the exchange activity of the sec7-domain of cytohesin-2 (ARNO) of the phenyl diamides according to formulas (5) to (18) was determined by a guanine nucleotide exchange assay.
# The sec7-domain of cytohesin-2 (ARNO) and [Δ17]ARF1, a mutant of the ADP-ribosylation factor (ARF) protein, were subcloned into pET15 vectors (Novagen) as described in Hafner, M. et al. Nature 444, 941-944 (2006). N-terminal truncated [Δ17]ARF1 (amino acids 18-181), lacking the first 17 amino acids and ARNO-Sec7 (amino acids 50-255 of ARNO) were expressed in Escherichia coli and purified by Ni-NTA chromatography (Ni-NTA agarose, Qiagen).
# The exchange from […] (GDP) to […] (GTP) induces a conformation change of the ribosylation factor, as a result of which the fluorescence of a tryptophan radical of the protein is increased. GDP/GTP exchange was measured on [Δ17]ARF1 by tryptophan fluorescence because a large increase in intrinsic fluorescence of ARF occurs upon exchange of GDP for GTP. All measurements were performed in PBS (137 mM NaCl, 2.7 mM KCl, 10.2 mM Na2HPO4, 1.8 mM KH2PO4) pH 7.4, 3 mM MgCl2 at 37° C.
# [Δ17]ARF1 (1 μM) in PBS without MgCl2 was preincubated with 80 μM GDP in the presence of 2 mM ethylenediaminetetraacetic acid (EDTA) for 15 minutes. The bound GDP was stabilized by addition of MgCl2 at a final concentration of 3 mM and incubation for 5 minutes. For each exchange reaction 250 nM [Δ17]ARF1 was mixed with 10 nM ARNO-Sec7 (total volume 200 μl) in the absence or presence of the phenyl diamides according to formulas (5) to (18). The reaction was started by injection of 50 μM GTP.
# The tryptophan fluorescence was measured at excitation and emission wavelength of 280 nm and 340 nm respectively. All fluorescent measurements were performed with a Varioskan microplate reader (Thermo Scientific), in 96-well plates. For analysis all data were fitted by linear regression.
# The relative exchange rate was determined by comparing the initial linear rise of the fluorescence signal (exchange rate) in the presence of 2.5 μM of the phenyl diamides according to formulas (5) to (18) with the exchange rate in the presence of the solvent Dimethyl sulfoxide (DMSO), 0.4% end concentration, only. A further control was performed with the control compound according to formula (XH1009) as indicated below: […]
# Further, the IC50 value of the inhibition of the sec7-domain of the isolated cytohesin-2 was determined. The IC50 value was determined by plotting the initial linear rise of the fluorescence signal against the added concentrations of the amide. The IC50 value corresponds to the concentration of the phenyl diamides at which the activity of the protein is reduced to half. The lower the IC50 value, the more strongly the phenyl diamide inhibits the sec7-domain.
# [3] = system: Gli36 wt; assay: glioblastoma proliferation assay (MTT), Gli36 wt; type: cell-based; settings: Homo sapiens, 250 nM, 72 h, vs DMSO control, read-out: inhibitory effect on cell proliferation as compared to control
# Method: (§5) The effect of the phenyl diamides according to formulas (5) to (18) on the proliferation of Glioblastoma cells was tested in two pairs of established human glioblastoma cell lines, Gli36 and U87. Human Gli36 wt, U87 wt and U87 EGFRvIII cells were a gift from Prof. Dr. Andreas H. Jacobs, European Institute for Molecular Imaging, Munster, Germany. The cells were maintained in DMEM (PAA) supplemented with 10% fetal calf serum (FCS, Lonza), 1% Penicillin/Streptomycin (PAA) and 110 μg/ml Sodiumpyruvat (Sigma-Aldrich) and were grown at 37° C., 5% CO2.
# as §2, with “3000” for “300”, “250” for “concentrations ranging from 2.5”, “nM” for “nM to 2 μM”, “(18)” for “(18) or 5 μM of the control compound (XH1009)”, “(v/v). A further control was performed with the control compound according to formula (XH1009).” for “(v/v).”
# as §3
# (§6) The FIGS. 2 and 3 show the relative cell numbers in the wild type glioblastoma cell line U87 wt (FIG. 2) and Gli36 wt (FIG. 3) normalized to the DSMO treated control after 72 h incubation with the respective phenyl diamides according to formulas (5) to (18), the DSMO treated control compound determined with a MTT proliferation essay. Data were normalized with the exchange in the solvent (DMSO) only control set as 1 and represent the mean values of duplicates, error bars correspond to standard error of the mean (SEM).
# [4] = system: U87 wt; assay: glioblastoma proliferation assay (MTT), U87 wt; type: cell-based; settings: Homo sapiens, U87WT; for inhibition at 0.25 µM: 250 nM, 72 h, vs DMSO control, read-out: inhibitory effect on cell proliferation as compared to control; for IC50: 72 hours, at least 3 times, read-out: IC50 values of the inhibition of the proliferation in the cell line U87 wt
# Method: as §5
# as §2, with “3000” for “300”, “250” for “concentrations ranging from 2.5”, “nM” for “nM to 2 μM”, “(18)” for “(18) or 5 μM of the control compound (XH1009)”, “(v/v). A further control was performed with the control compound according to formula (XH1009).” for “(v/v).”
# as §3, §6, §1, §2, §4
# [5] = system: glioblastoma cells; assay: glioblastoma cell proliferation, cell line not stated (summary statements); type: cell-based; settings: read-out: IC50 for the proliferation inhibition
Structure (SMILES),IC50 [1],IC50 [2],IC50 [4],IC50 [5],inhibition at 0.25 µM [3],inhibition at 0.25 µM [4],selectivity of the inhibition of the EGFRvIII dependent cell proliferation [1],"inhibition of proliferation of EGFRvIII-cells relative to parental cell line ([1]; U87 EGFRvIII vs parental U87 wt, FIG. 4B)"
CC(C)(C)c1ccc(C(=O)Nc2ccc(NC(=O)c3ccc(Br)o3)cc2)cc1 [formula (7)],0.198 µM,4.57 µM,1.37 µM,,,,selectively inhibited the proliferation of the U87 EGFRvIII-containing cell line; also recorded: selectivity for the mutation EGFR variant III (EGFRvIII),
CC(C)(C)c1ccc(C(=O)Nc2ccc(NC(=O)c3ccc(F)cc3)cc2)cc1 [formula (9)],0.372 µM,2.1 µM,0.089 µM,,30 to 50%,30 to 50%,,
CC(C)(C)c1ccc(C(=O)Nc2ccc(NC(=O)c3ccccc3Cl)cc2)cc1 [formula (11)],0.126 µM,2.58 µM,0.106 µM,,> 50%,> 50%,,
CC(C)(C)c1ccc(C(=O)Nc2ccc(NC(=O)c3ccncc3)cc2)cc1 [formula (13)],0.186 µM,7.27 µM,2.09 µM,,,,selectively inhibits the EGFRvIII expressing U87 cell line; also recorded: selectively inhibited the proliferation of the U87 EGFRvIII-containing cell line; also recorded: selectivity for the mutation EGFR variant III (EGFRvIII),more than 10 fold
"CC(C)(C)c1ccc(C(=O)Nc2ccc(NC(=O)/C=C/c3ccco3)cc2)cc1 [formula (16), 4-tert-butyl-N-[4-[[(E)-3-furan-2-ylprop-2-enoyl]amino]phenyl]-benzamide]",0.435 µM,3.75 µM,0.958 µM,,,,no selectivety,
CC(C)(C)c1ccc(C(=O)Nc2ccc(NC(=O)c3ccc4c(c3)OCO4)cc2)cc1 [formula (17)],0.224 µM,2.69 µM,0.922 µM,,,,selectively inhibited the proliferation of the U87 EGFRvIII-containing cell line; also recorded: selectivity for the mutation EGFR variant III (EGFRvIII),

# The next compounds have a lower IC50 [2] than those just listed; values first:
IC50 [1],IC50 [2],IC50 [4],IC50 [5],Structure (SMILES),inhibition at 0.25 µM [3],inhibition at 0.25 µM [4],selectivity of the inhibition of the EGFRvIII dependent cell proliferation [1],"inhibition of proliferation of EGFRvIII-cells relative to parental cell line ([1]; U87 EGFRvIII vs parental U87 wt, FIG. 4B)"
0.084 µM,1.86 µM,0.367 µM,,Cc1ccc(C(=O)Nc2ccc(NC(=O)c3ccc(C(C)(C)C)cc3)cc2)c(C)c1 [formula (12)],,,,
,1.77 µM,,,CC(C)(C)c1ccc(C(=O)Nc2ccc(NC(=O)c3ccccc3F)cc2)cc1 [formula (15)],,,,
,1.76 µM,,,Cc1ccc(C(=O)Nc2ccc(NC(=O)c3ccc(C(C)(C)C)cc3)cc2)cc1 [formula (14)],> 50%,> 50%,,
0.105 µM,1.34 µM,0.297 µM,< 2 µM,CC(C)(C)c1ccc(C(=O)Nc2ccc(NC(=O)c3ccc4c(c3)OCCO4)cc2)cc1 [formula (18)],,,,
0.148 µM,1.19 µM,0.118 µM,,Cc1ccccc1C(=O)Nc1ccc(NC(=O)c2ccc(C(C)(C)C)cc2)cc1 [formula (8)],> 50%,> 50%,,
0.046 µM,1.18 µM,0.168 µM,,"CC(C)(C)c1ccc(C(=O)Nc2ccc(NC(=O)c3ccccc3[N+](=O)[O-])cc2)cc1 [formula (5), N-{4-[(4-tert-butylbenzoyl)amino]phenyl}-2-nitrobenzamide]",30 to 50%,30 to 50%,,
0.067 µM,0.79 µM,0.243 µM,,"CC(C)(C)c1ccc(C(=O)Nc2ccc(NC(=O)c3cccc(Cl)c3)cc2)cc1 [formula (6), N-{4-[(4-tert-butylbenzoyl)amino]phenyl}-3-chlorobenzamide]",30 to 50%,30 to 50%,,
0.083 µM,0.44 µM,0.028 µM,,CC(C)(C)c1ccc(C(=O)Nc2ccc(NC(=O)c3ccc([N+](=O)[O-])cc3)cc2)cc1 [formula (10)],> 50%,> 50%,selectivety for the inhibition of the parental U87 wt cell line,
